The values below come from US20040063731A1, “Pharmaceutical formulation comprising pyrazolo[4,3-d]pyrimidines and endothelin receptor antagonists or thienopyrimidines and endothelin receptor antagonists” (priority 2001, published 2004).

Where a name gives a salt, the structure may show the parent alone.

`COc1ccc(CNc2nc(CCC(=O)O)nc3sc4c(c23)CCCC4)cc1Cl` (as salt: salt) [Example 2, 3-[4-(3-chloro-4-methoxybenzylamino)-5,6,7,8-tetrahydro-[1]-benzothieno[2,3-d)pyrimidin-2-yl)propionic acid]: the melting point (usually the temperature, or range, at which the solid turns liquid) came out at 135 °C. `COc1ccc(CNc2nc(-c3ccc(C(=O)O)cc3)nc3sc4ccccc4c23)cc1Cl` (as salt: salt) [Example 3, 4-[4-(3-chloro-4-methoxybenzylamino)-[1]-benzothieno[2,3-d]-pyrimidin-2-yl]benzoic acid] gave a melting point of 189 to 190 °C. Compound `CCCc1nn(C)c2c(NCc3ccc(OC)c(Cl)c3)nc(-c3ccc(C(=O)O)cc3)nc12` (as salt: salt) [Example 3, 4-[7-(3-chloro-4-methoxybenzylamino]-methyl-3-propyl-1H-pyrazolo-[4,3-d]pyrimidin-5-yl]benzoic acid] gave a melting point of 139 °C. Turning to `COc1ccc(CNc2nc(CCC(=O)O)nc3sc4c(c23)CCCC4)cc1Cl` [Example 2, 3-[4-(3-chloro-4-methoxybenzylamino)-5,6,7,8-tetrahydro-[1]-benzothieno[2,3-d)pyrimidin-2-yl)propionic acid], the melting point was 229 °C. In turn, `CCCc1nn(C)c2c(NCc3ccc(OC)c(Cl)c3)nc(CCC(=O)O)nc12` [Example 2, 3-[7-(3-chloro-4-methoxybenzylamino)-1-methyl-3-propyl-1H-pyrazolo-[4,3-d]pyrimidin-5-yl]propionic acid] showed a melting point of 178 °C.
